Measured values as given in PubChem BioAssay AID1963844 (Molecular Pharmacology Branch, DTP, NCI, 2024).
pIC50: −log10 of the molar value.

Test system: 422866-222-R5-J1-PDC complex spheroid viability
Assay: Anticancer human tumor 422866-222-R5-J1-PDC patient-derived pancreatic adenocarcinoma cell line growth inhibition [POLQ]
Conditions: for pIC50: curve of first compound; for viability, T/C: stronger effect = lower value
Protocol: Multicellular complex tumor spheroid response to Polymerase (POL) inhibitors (novobiocin, ART-558, RP6685) in combination with a variety of drugs and investigational agents in selected tumor cell lines
The POL inhibitors (novobiocin, ART-558, and RP6685) were evaluated both individually and in combination with standard of care and investigational anticancer small molecules within a complex spheroid model of solid tumors. . Complex spheroids include a stromal component modeled by human endothelial cells (HUVEC) and fibroblasts modeled by human mesenchymal stem cells (MSCs). The concentration ranges selected for each drug and investigational agent were based upon clinically achievable concentrations if the clinical Cmax of the agent was known.
Compounds. The drugs and investigational agents: novobiocin (NSC847541), ART-558 (NSC835418), RP-6685 (NSC848927), peposertib (NSC802822), ceralasertib (NSC780249), elimusertib (NSC800525), camonsertib (NSC841442), AZD-1390 (NSC803789), olaparib (NSC753686), talazoparib (NSC767125), rucaparib (NSC756644), sotorasib (NSC818433), MRTX-1133 (NSC836407), SN-38 (NSC673596), topotecan (NSC609699), epotoside (NSC141540), doxorubicin (NSC123127), gemcitabine (NSC613327), 5-fluorouracil (NSC19893), paclitaxel (NSC125973), vemurafenib (NSC761431), MSA-2 (NSC828583), SN-011 (NSC837082), adavosertib (NSC754352), prexasertib (NSC758257), carboplatin (NSC241240) and oxaliplatin (NSC266046), were obtained from the National Cancer Institute (NCI) Developmental Therapeutics Program Chemical Repository (21). The FDA-approved anticancer drug set is available from the Developmental Therapeutics Program at https://dtp.cancer.gov/organization/dscb/obtaining/. […] The stock solutions were prepared in dimethyl sulfoxide (DMSO, Sigma-Aldrich, St. Louis, MO, cat. D2650), except for the platinum compounds which were prepared in saline (Quality Biological, Gaithersburg, MD, cat. 114-055-101), at 800-fold the tested concentration and stored at -70 degrees C prior to their use. All drugs and investigational agents were tested over a range starting from a high concentration at or near the clinical Cmax and decreasing in half-log increments. If the clinical Cmax for an agent had not been determined, the highest concentration tested was 10 microM, except for SN-38, which was tested at a high concentration of 1 microM.
Cell Culture. All cells were maintained in an incubator at 37 degrees C and 5% CO2 with 95% humidity. The PDC lines were cultured according to standard operating procedures established by the NCI PDMR (https://pdmr.cancer.gov). Table 3 of the manuscript, lists the cell lines along with the number of the three cell types plated to form the mct-spheroids and media for tumor cell growth. After thawing, all PDC lines, except 997537-175-T-J1-PDC and 415267-285-R-J2-PDC, were cultured in Matrigel-coated flasks prepared with a working solution of 1X Ham's F-12 nutrient mix, without supplementation (Thermo Fisher Scientific, cat. 11765054), 100 U/mL penicillin-streptomycin (Thermo Fisher Scientific, cat. 15140122), and 2.5% Matrigel (Corning Inc., Corning, NY, cat. 354248) for the first three passages. The two PDC lines 997537-175-T-J1-PDC and 415267-285-R-J2-PDC were cultured on uncoated flasks. The 857933-349-R-J2-PDC line was cultured in 6C/Colon 1B media containing advanced DMEM/F-12 (Thermo Fisher Scientific, cat. 12634028), 10 mM HEPES (Thermo Fisher Scientific, cat. 15630080), 1X GlutaMAX supplement (Thermo Fisher Scientific, cat. 35050061), 0.1 mg/mL primocin (InvivoGen, San Diego, CA, cat. ant-pm-2), 10% defined fetal bovine serum, heat inactivated (HyClone Laboratories Inc., Logan, UT, cat. SH30070.03HI), 50% L-WRN conditioned media (ATCC, cat. CRL-3276), 1.25 mM N-Acetyl-L-cysteine (Sigma-Aldrich, cat. A9165), 10 mM nicotinamide (Sigma-Aldrich, cat. N0636), 1X B-27 supplement (Thermo Fisher Scientific, cat. 17504044), 1X N-2 supplement (Thermo Fisher Scientific, cat. […]
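Also: spheroids exposed to compounds for one week before readout.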
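For viability, T/C in this document: percent of DMSO vehicle wells luminescence so 100% = untreated viability.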

Question: Which results are given for `Nc1ccn(C2OC(CO)C(O)C2(F)F)c(=O)n1` (configuration not stated) + COC1C(OC(N)=O)C(O)C(Oc2ccc3c(O)c(NC(=O)c4ccc(O)c(CC=C(C)C)c4)c(=O)oc3c2C)OC1(C)C?
Answer: pIC50 (second compound 0.0316 µM): 6.96; pIC50 (second compound 0.1 µM): 7.03; pIC50 (second compound 0.316 µM): 6.98; pIC50 (second compound 1 µM): 7.13; pIC50 (second compound 3.16 µM): 6.86; pIC50 (second compound 10 µM): 7.17; viability, T/C (second compound 0.0316 µM, first compound 0.0316 µM): 73.5%; viability, T/C (second compound 0.0316 µM, first compound 0.1 µM): 49.9%; viability, T/C (second compound 0.0316 µM, first compound 0.316 µM): 40.9%; viability, T/C (second compound 0.0316 µM, first compound 1 µM): 33.1%; viability, T/C (second compound 0.0316 µM, first compound 3.16 µM): 28%; viability, T/C (second compound 0.0316 µM, first compound 10 µM): 32%; viability, T/C (second compound 0.1 µM, first compound 0.0316 µM): 75.6%; viability, T/C (second compound 0.1 µM, first compound 0.1 µM): 47.7%; viability, T/C (second compound 0.1 µM, first compound 0.316 µM): 40.9%; viability, T/C (second compound 0.1 µM, first compound 1 µM): 33.7%; viability, T/C (second compound 0.1 µM, first compound 3.16 µM): 32.6%; viability, T/C (second compound 0.1 µM, first compound 10 µM): 36.2%; viability, T/C (second compound 0.316 µM, first compound 0.0316 µM): 74%; viability, T/C (second compound 0.316 µM, first compound 0.1 µM): 48.2%; viability, T/C (second compound 0.316 µM, first compound 0.316 µM): 42.5%; viability, T/C (second compound 0.316 µM, first compound 1 µM): 36.1%; viability, T/C (second compound 0.316 µM, first compound 3.16 µM): 31.7%; viability, T/C (second compound 0.316 µM, first compound 10 µM): 33.4%; viability, T/C (second compound 1 µM, first compound 0.0316 µM): 67.3%; viability, T/C (second compound 1 µM, first compound 0.1 µM): 43.1%; viability, T/C (second compound 1 µM, first compound 0.316 µM): 41%; viability, T/C (second compound 1 µM, first compound 1 µM): 36.1%; viability, T/C (second compound 1 µM, first compound 3.16 µM): 38.4%; viability, T/C (second compound 1 µM, first compound 10 µM): 34.3%; viability, T/C (second compound 3.16 µM, first compound 0.0316 µM): 61.5%; viability, T/C (second compound 3.16 µM, first compound 0.1 µM): 54.5%; viability, T/C (second compound 3.16 µM, first compound 0.316 µM): 38.8%; viability, T/C (second compound 3.16 µM, first compound 1 µM): 37.2%; viability, T/C (second compound 3.16 µM, first compound 3.16 µM): 34.5%; viability, T/C (second compound 3.16 µM, first compound 10 µM): 38.6%; viability, T/C (second compound 10 µM, first compound 0.0316 µM): 62.7%; viability, T/C (second compound 10 µM, first compound 0.1 µM): 43.7%; viability, T/C (second compound 10 µM, first compound 0.316 µM): 37.5%; viability, T/C (second compound 10 µM, first compound 1 µM): 35.7%; viability, T/C (second compound 10 µM, first compound 3.16 µM): 39%; viability, T/C (second compound 10 µM, first compound 10 µM): 35.4%
